Laboratory results: patent publication US11111270B2, “Inhibitor of apoptosis protein (IAP) antagonists” (Sanford Burnham Prebys Medical Discovery Institute, priority 2012, dated 2021)

Tests used:
[1] = biological target: XIAP BIR1/2 (Homo sapiens, UniProt P98170); test: XIAP BIR1/2 Ki; format: binding
[2] = biological target: XIAP BIR3 (Homo sapiens (Human), UniProt P98170); test: XIAP BIR3 Ki; format: binding
[3] = biological target: ML-IAP (Homo sapiens (Human), UniProt Q96CA5); test: ML-IAP Ki; format: binding
[4] = system: PPC-1 cells; test: PPC-1 cell survival with TRAIL (Cell Titer Glo); format: cell-based
Experimental: (§1) 5000 PPC-1 cells were plated and grown overnight. Compounds were plated and 4 hrs later, TRAIL was added to half of the plate while RPMI was added to the other half of the plate as a control. Plates were return to the incubator for 24 hrs. Plates were removed from the incubator and placed on the bench for 30 min and then 25 uL of Cell Titer Glo were added per well. Plates were placed on a rocker and then read on a luminometer. 5000 MDA-MB-231 cells were plated per well. Compound was added and 4 hrs later, TRAIL was added at 5 ng/mL; RPMI was added for a minus TRAIL control. Plates were incubated an additional 24 hrs, removed to the bench for 30 min, and then 25 uL of cell titer glo was added per well. Plates were placed on a rocker and read on a luminometer. Data were fit using PRISM.

[5] = system: MDA-MB-231 cells; test: MDA-MB-231 cell survival (Cell Titer Glo); format: cell-based
Experimental: as §1

[6] = system: PPC-1 cells; test: PPC-1 cell survival with TNFα; format: cell-based
Experimental: as §1, with “Compounds were plated and 4 hrs later, TRAIL was added to half of the plate while RPMI was added to the other half of the plate as a control.” left out

Chain of ML-IAP (Q96CA5 whole entry, species assumed): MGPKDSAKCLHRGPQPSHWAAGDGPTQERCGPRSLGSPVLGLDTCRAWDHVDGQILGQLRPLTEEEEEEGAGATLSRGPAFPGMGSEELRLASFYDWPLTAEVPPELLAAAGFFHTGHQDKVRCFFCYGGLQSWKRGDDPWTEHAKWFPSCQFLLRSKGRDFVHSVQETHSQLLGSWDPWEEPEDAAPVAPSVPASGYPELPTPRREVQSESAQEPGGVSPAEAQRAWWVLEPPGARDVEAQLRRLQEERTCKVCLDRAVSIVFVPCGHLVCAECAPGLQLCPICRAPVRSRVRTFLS
Chain of XIAP BIR1/2 (P98170 whole entry, looked up): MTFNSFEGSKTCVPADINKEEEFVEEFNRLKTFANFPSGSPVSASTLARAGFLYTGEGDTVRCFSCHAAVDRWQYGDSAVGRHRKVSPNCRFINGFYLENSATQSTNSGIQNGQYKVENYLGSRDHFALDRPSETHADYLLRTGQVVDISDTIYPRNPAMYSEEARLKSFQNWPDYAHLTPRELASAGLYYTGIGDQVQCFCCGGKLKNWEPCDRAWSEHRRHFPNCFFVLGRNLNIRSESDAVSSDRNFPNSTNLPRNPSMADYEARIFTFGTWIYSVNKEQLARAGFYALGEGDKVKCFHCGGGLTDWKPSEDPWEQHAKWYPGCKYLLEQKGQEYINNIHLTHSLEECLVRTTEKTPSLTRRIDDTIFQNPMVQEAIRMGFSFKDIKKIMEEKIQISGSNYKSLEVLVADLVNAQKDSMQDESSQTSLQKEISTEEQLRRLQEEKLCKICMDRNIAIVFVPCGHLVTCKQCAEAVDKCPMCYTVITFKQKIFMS
Chain of XIAP BIR3 (P98170 241-356): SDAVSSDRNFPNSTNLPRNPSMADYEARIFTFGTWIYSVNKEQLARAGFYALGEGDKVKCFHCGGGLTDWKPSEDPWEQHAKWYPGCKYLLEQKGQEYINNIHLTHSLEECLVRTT

SMILES	Ki ([1]; Table B-1)	Ki ([2]; Table B-1)	other results
CN[C@@H](C)C(=O)N[C@H]1CO[C@H]2CCC(C(=O)Nc3ccc(OC)cc3)N2C1=O (stereo partly drawn) [Product 3]	> 50 µM		
CNC(C)C(=O)N[C@H]1CO[C@H]2CCC(C(=O)Nc3ccc(OC)cc3)N2C1=O (stereo partly drawn) [Product 4]	> 50 µM	25 to 50 µM	
CN[C@@H](C)C(=O)N[C@H]1CO[C@H]2CCC(C(=O)NCc3ccccc3)N2C1=O (stereo partly drawn) [Product 5]	> 50 µM		
CN[C@@H](C)C(=O)N[C@H]1CO[C@H]2CCC(C(=O)Nc3ccc(Cl)cc3)N2C1=O (stereo partly drawn) [Product 8]	> 50 µM		
CN[C@@H](C)C(=O)N[C@H]1CO[C@H]2CCC(C(=O)NC3CCCc4ccccc43)N2C1=O (stereo partly drawn) [Product 9]	> 50 µM	< 25 µM	
CN[C@@H](C)C(=O)N[C@@H]1C(=O)N2C(C(=O)NC3CCCc4ccccc43)CC[C@@H]2O[C@@H]1C (stereo partly drawn) [Product 10]	> 50 µM	< 25 µM	Ki ([3]; Table B-1): < 25 µM
CN[C@@H](C)C(=O)N[C@@H]1C(=O)N2C(C(=O)Nc3cccc4ccccc34)CC[C@@H]2O[C@@H]1C (stereo partly drawn) [Product 11]	> 50 µM		
CN[C@@H](C)C(=O)N[C@H]1CCO[C@H]2CCC(C(=O)N[C@@H]3CCCc4ccccc43)N2C1=O (stereo partly drawn) [Product 12]	> 50 µM	< 25 µM	PPC-1 (TRAIL) LD50 [4]: A (A = ≤ 25 micromolar); MDA-MB-231 LD50 [5]: A (A = ≤ 25 micromolar); Ki ([3]; Table B-1): < 25 µM; PPC-1 (TNFα) LD50 [6]: A (A = ≤ 25 micromolar)
CN[C@@H](C)C(=O)NC1CCO[C@H]2CCC(C(=O)Nc3cccc4ccccc34)N2C1=O (stereo partly drawn) [Product 13]	< 25 µM	< 25 µM	
CN[C@@H](C)C(=O)N[C@H]1CCO[C@H]2CCC(C(=O)NC(c3ccccc3)c3ccccc3)N2C1=O (stereo partly drawn) [Product 14]	> 50 µM	< 25 µM	Ki ([3]; Table B-1): < 25 µM
CN[C@@H](C)C(=O)N[C@@H]1C(=O)N2C(C(=O)NC(c3ccccc3)c3ccccc3)CC[C@@H]2O[C@@H]1C (stereo partly drawn) [Product 15]	> 50 µM		
CN[C@@H](C)C(=O)N[C@H]1CCCNC2CCC(C(=O)N[C@@H]3CCCc4ccccc43)N2C1=O (stereo partly drawn) [Product 16]		< 25 µM	
CN[C@@H](C)C(=O)N[C@H]1CCCNC2CCC(C(=O)Nc3cccc4ccccc34)N2C1=O (stereo partly drawn) [Product 17]	< 25 µM	< 25 µM	
CN[C@@H](C)C(=O)N[C@H]1CCO[C@H]2c3ccccc3C(C(=O)N[C@@H]3CCCc4ccccc43)N2C1=O (stereo partly drawn) [Product 17a]			Ki ([1]; Table 2-2): > 50 µM; Ki ([2]; Table 2-2): < 25 µM; Ki ([3]; Table 2-2): < 25 µM
CN[C@@H](C)C(=O)N[C@H]1CCO[C@H]2CC(C)(C)C(C(=O)N[C@@H]3CCCc4ccccc43)N2C1=O (stereo partly drawn) [Product 17b]			Ki ([1]; Table 2-2): < 25 µM; Ki ([2]; Table 2-2): < 25 µM; Ki ([3]; Table 2-2): < 25 µM
CN[C@@H](C)C(=O)N[C@H]1CCS[C@H]2CC(C)(C)C(C(=O)N[C@@H]3CCCc4ccccc43)N2C1=O (stereo partly drawn) [Product 17c]			Ki ([1]; Table 2-2): < 25 µM; Ki ([2]; Table 2-2): < 25 µM; Ki ([3]; Table 2-2): < 25 µM
CC(=O)N(C)[C@@H](C)C(=O)N[C@H]1CCCN(C(C)=O)[C@H]2CCC(C(=O)Nc3cccc4ccccc34)N2C1=O (stereo partly drawn) [Product 18]	> 50 µM		
CN[C@@H](C)C(=O)N[C@H]1CCCN(C(C)=O)C2CCC(C(=O)N[C@@H]3CCCc4ccccc43)N2C1=O (stereo partly drawn) [Product 20]	> 50 µM	< 25 µM	
CN[C@@H](C)C(=O)NC1CCO[C@H]2CC[C@H](C(=O)n3ccc4ccccc43)N2C1=O (stereo partly drawn) [Product 22]	> 50 µM	25 to 50 µM	
CN[C@@H](C)C(=O)NC1CCO[C@H]2CC[C@@H](C(=O)n3ccc4ccccc43)N2C1=O (stereo partly drawn) [Product 23]	> 50 µM	25 to 50 µM	
CN[C@@H](C)C(=O)N[C@H]1CCS[C@H]2CCC(C(=O)N[C@@H]3CCCc4ccccc43)N2C1=O (stereo partly drawn) [Product 24]	> 50 µM	< 25 µM	PPC-1 (TRAIL) LD50 [4]: A (A = ≤ 25 micromolar); MDA-MB-231 LD50 [5]: A (A = ≤ 25 micromolar); Ki ([3]; Table B-1): < 25 µM; PPC-1 (TNFα) LD50 [6]: A (A = ≤ 25 micromolar)
